In ChEMBL document CHEMBL1629579, “Correlating echinocandin MIC and kinetic inhibition of fks1 mutant glucan synthases for Candida albicans: implications for interpretive breakpoints” (Antimicrob Agents Chemother, 2009):
Numbered stars: 1 amine (or outer) side, 2 acyl side, 3 side chain; on linkers, the order of the positions; unused ones are H or OH. Bridge positions count the residues as written; N and C are the ends. Square brackets hold non-standard residues; d marks the D form. Peptide text beside a SMILES is read from it. * marks the point of attachment. pTerphenylCO(4''-OnC5H11) = CCCCCOc1ccc(-c2ccc(-c3ccc(C(=O)*)cc3)cc2)cc1; Orn(4R-OH,5R-OH) = O=C([C@H](C[C@@H](O)[C@@H](O)N[*:3])N[*:1])[*:2]; hTyr(3S-OH,4S-OH) = N[C@H](C(=O)O)[C@H](O)[C@@H](O)c1ccc(O)cc1; Pro(3S-OH,4S-Me) = C[C@H]1CN[C@H](C(=O)O)[C@H]1O; Hyp = O=C(O)[C@@H]1C[C@@H](O)CN1

Tests used:
Candida albicans [1] = assay: Selectivity ratio of Ki for Candida albicans 2762 1,3-beta-D-glucan synthase subunit FKS1p T1922C mutant to Ki for Candida albicans SC5314 wild type 1,3-beta-D-glucan synthase subunit FKS1p
Candida albicans [2] = assay: Selectivity ratio of Ki for Candida albicans 89 1,3-beta-D-glucan synthase subunit FKS1p C1934A mutant to Ki for Candida albicans SC5314 wild type 1,3-beta-D-glucan synthase subunit FKS1p
Candida albicans [3] = assay: Selectivity ratio of Ki for Candida albicans 85 1,3-beta-D-glucan synthase subunit FKS1p C1934T mutant to Ki for Candida albicans SC5314 wild type 1,3-beta-D-glucan synthase subunit FKS1p
Candida albicans [4] = assay: Selectivity ratio of Ki for Candida albicans 149 1,3-beta-D-glucan synthase subunit FKS1p G1942T mutant to Ki for Candida albicans SC5314 wild type 1,3-beta-D-glucan synthase subunit FKS1p

Measured: Ratio Ki

CCCCCOc1ccc(-c2ccc(-c3ccc(C(=O)N[C@H]4C[C@@H](O)[C@@H](O)NC(=O)[C@@H]5[C@@H](O)[C@@H](C)CN5C(=O)[C@H]([C@@H](C)O)NC(=O)[C@H]([C@H](O)[C@@H](O)c5ccc(O)cc5)NC(=O)[C@@H]5C[C@@H](O)CN5C(=O)[C@H]([C@@H](C)O)NC4=O)cc3)cc2)cc1 [ANIDULAFUNGIN] ({pTerphenylCO(4''-OnC5H11)}-[Orn(4R-OH,5R-OH)]T[Hyp][hTyr(3S-OH,4S-OH)]T[Pro(3S-OH,4S-Me)]; lactam 1-C)
> 100: Candida albicans [1] | Candida albicans [2] | Candida albicans [3] | Candida albicans [4]
